From patent US20220023249A1, “Carotenoid Formulation For Increased Bioavailability” (Industrial Organica, SA de CV, priority 2020, published 2022)
Like-named read-outs stand apart in the source and are kept apart here.

Legend:
[1] = cited from earlier work
[2] = hens; cited from earlier work
[3] = design: species or system human; conditions: in vivo
Source text: COAST was a 6-month, double-blind, block-randomized placebo-controlled study involving 81 healthy participants between 18 and 65 years old. Participant recruitment and assessment commenced on December 2017 and ended on December 2018. Recruitment was achieved through local media and advertisement at the Waterford Institute of Technology, local fitness centers, and with employees of an industry based in Waterford, Ireland. […] Every participant enrolled in the study provided written informed consent prior to commencement. The study protocol was approved May 2017 by the Research Ethics Committees of the Waterford Institute of Technology (Waterford, Ireland) and the HSE, South Eastern Area (University Hospital Waterford, Waterford, Ireland). Industrial Orgánica, S.A. de C.V., the manufacturer of the nutritional supplements, had no role in the design of the study, the collection and analysis of the data, or the preparation of manuscripts. All vouch for the accuracy of the data and the fidelity of the study to the protocol. COAST was a five-arm intervention study, where participants were randomly allocated, with equal probability and separately for men and women, to one of four active intervention groups or to a placebo group. Label claims of the nutritional content in the intervention supplements were as follows: Group 1, L (10 mg)+MZ (10 mg)+Z (2 mg) provided in one capsule; Group 2, L (10 mg)+MZ (10 mg)+Z (2 mg) provided in two capsules; […] Therefore, it was decided to present the dosages of the formulations as stated by label claim. […] Serum carotenoid concentrations were analyzed as the total concentrations (μmol/L) for each of the carotenoids in serum. […] Outcome variables were recorded at baseline and at 6 months. […] Calibration lines used, as well as lower and upper limits of quantification (LLOQ and ULOQ respectively), are as previously performed. Serum carotenoid analysis was completed in sixteen independent batches, with a maximum intra-day precision of 7.28%, measured as RSD, and an inter-day precision of 3.16% (RSD). […]

Structure (SMILES)	increase of serum L ([1]; AREDS 2 study)	increase of serum L ([1]; CREST AMD study)	deposition of carotenoid in egg yolk compared to free form [2]	serum response compared to free carotenoid as crystals [3]	serum response compared to group supplemented with free L ([1]; previous clinical trial)	MPOD improvements compared to free L supplementation ([1]; previous report)
CC1=C[C@H](O)CC(C)(C)[C@H]1/C=C/C(C)=C/C=C/C(C)=C/C=C/C=C(C)/C=C/C=C(C)/C=C/C1=C(C)C[C@@H](O)CC1(C)C [L, (3R,3′R,6R)-lutein, reference compound]	200%	304%				
CC(=O)O[C@@H]1CC(C)=C(/C=C/C(C)=C/C=C/C(C)=C/C=C/C=C(C)/C=C/C=C(C)/C=C/C2=C(C)C[C@@H](OC(C)=O)CC2(C)C)C(C)(C)C1 [Zd, (3R,3′R)-zeaxanthin diacetate]			greater capability	significantly greater		
CC(=O)O[C@@H]1CC(C)=C(/C=C/C(C)=C/C=C/C(C)=C/C=C/C=C(C)/C=C/C=C(C)/C=C/[C@H]2C(C)=C[C@H](OC(C)=O)CC2(C)C)C(C)(C)C1 [Ld, (3R,3′R,6R)-lutein diacetate]			similar	remained similar	slightly higher and not statistically different	superior and significant response
CC(=O)OC1CC(C)=C(C=CC(C)=CC=CC(C)=CC=CC=C(C)C=CC=C(C)C=CC2=C(C)CC(OC(C)=O)CC2(C)C)C(C)(C)C1 (stereo not drawn) [MZd, meso-zeaxanthin diacetate]			greater capability	significantly greater		
